{"source": "patent US20030225129A1", "about": "“Polymorphs of clopidogrel hydrogensulfate” (priority 2002, published 2003)", "origin": "cited, not measured here", "key": {"[1]": {"conditions": "in vivo"}, "platelet activity": {"system": "platelet activity", "conditions": "after administration"}}, "data": [{"compound": "COC(=O)[C@H](c1ccccc1Cl)N1CCc2sccc2C1", "note": "[clopidogrel, methyl (+)-(S)-∝-(o-chlorophenyl)-6,7-dihydrothieno[3,2-c]pyridine-5(4H)-acetate]", "values": [{"measurement": "effectiveness relative to aspirin at stated dosages", "setting": "platelet aggregation; 75 mg of base equivalent versus 325 mg of aspirin", "value": "more effective"}, {"measurement": "effectiveness in blocking platelet aggregation relative to aspirin", "setting": "platelet aggregation; versus aspirin, even at much lower dosage", "value": "more effective in blocking platelet aggregation than aspirin"}, {"measurement": "gastrointestinal bleeding relative to aspirin", "setting": "[1]", "value": "much less gastrointestinal bleeding than aspirin"}, {"measurement": "duration of antiplatelet activity", "setting": "platelet activity", "value": "up to ten days after administration"}]}]}
